# Laboratory results taken from patent US11155636B2, “PRL3 antibody” (Agency for Science, Technology and Research, priority 2016, dated 2021).
# Legend:
# [1] = test system: PRL-3^+ SNU-484 orthotopic gastric tumors; assay: Orthotopic gastric cancer model, SNU-484; assay type: in vivo, Balb/C nude mice
# Method: Eight-week old male Balb/C nude mice obtained from the Biological Resource Centre (A*STAR, Singapore) were used for all animal models in this study. […] The stomach was taken out through the abdominal incision by surgical forceps, and cancer cells were injected into the subserosa layer. Subsequently, the stomach was placed back and the abdomen was sutured back in layers. […] The treatment regime commenced on day 2 post-inoculation of cancer cells in the gastric subserosa layer. […] PBS was used as a control in “untreated” mice. […] Tumor volumes were calculated using the formula: volume=0.4×tumor length×tumor width×tumor width.
# 10 μm-thick cryosection slides were fixed with 4% formalin for 20 min and incubated with 1% H2O2-PBS in the dark for 5 min. Washed slides were then blocked in PBS containing 10% goat serum and 1% BSA (Sigma) for 1 h at RT. Subsequently, slides were washed four times in PBS-0.05% Tween-20 with gentle shaking and incubated with goat anti-human labeled polymer-HRP (Dako) for 2 h before washing extensively and incubating with substrate-chromogen solution (Dako) for 10-20 min in the dark. Mounted slides were examined using a brightfield microscope (Olympus) and representative images were captured.
# [2] = set-up: species or system Balb/C nude mice; conditions: mouse, in vivo
# Method: WBC staining of mouse blood smears: After smearing a thin layer from a drop of fresh mouse blood on a glass slide, slides were baked at 37° C. for 1 h before flooding with modified Wright Giemsa stain (Sigma) for 1 min followed by washing with deionized water for 3 min. After drying, the stained slide was observed under microscope, with WBCs stained blue. Estimation of total WBC was performed under light microscopy (Olympus) by counting in ten visual fields in each slide and calculation using the equation WBCs/μl=(total number of counted WBC/number of fields)×2000. Full blood counts: Hematological analysis of mice samples was conducted by Quest Laboratories (Singapore).
# We tested four treatment protocols: PBS control (Group 1), PRL3-zumab monotherapy (Group 2), PRL3-zumab+5-FU combination therapy (Group 3), or 5-FU monotherapy (Group 4). According to the treatment protocol, bi-weekly doses of PRL3-zumab (100 μg/dose) or 5-FU (30 mg/kg/dose) were administered individually, or in combination, intravenously into groups of nude mice carrying orthotopic PRL-3^+ SNU-484 gastric tumors.
# [3] = test system: PRL-3+ and PRL-3− cancer cells; assay: In vitro cancer cell growth assay; assay type: cell-based; conditions: PRL-3+ and PRL-3− cells; PRL3-zumab up to 50 mg/mL
# [4] = test system: advanced HCC; conditions: cited from earlier work
smiles,measurement,setting,value
"O=c1[nH]cc(F)c(=O)[nH]1 [5-FU, 5-fluorouracil]",mean tumor volume,"[1]; four-group study, bi-weekly i.v. PRL3-zumab 100 μg/dose and/or 5-FU 30 mg/kg/dose, Day 28, n=5 per group",1.76±0.52 cm^3
same,numbers of infiltrating B cells and NK cells (immunofluorescence),"[1]; tumor sections, compared to untreated",lack of B or NK cell infiltration
same,haematological profile (full blood counts),[2],"reduced neutrophil, lymphocyte, and monocyte counts"
same,overall animal activity,[2],reduction in overall animal activity
same,reduction in peripheral WBC counts compared to control or PRL3-zumab monotherapy,[2],5 fold
N.N.[Cl][Pt][Cl] [cisplatin],cancer cell growth in vitro,[3],"dose-dependent, nonspecific cell killing"
CNC(=O)c1cc(Oc2ccc(NC(=O)Nc3ccc(Cl)c(C(F)(F)F)c3)cc2)ccn1 [Sorafenib],extended median survival,[4],2.8 months
